# In patent US10919929B2, “Glucocorticoid inhibitors for treatment of prostate cancer” (Sloan-Kettering Institute for Cancer Research, priority 2013, dated 2021):
# Legend:
# [1] = system: AR target gene expression; assay: AR target gene expression with GR antagonists; type: cell-based
# [2] = system: AR target genes in LREX′ cells; assay: Expression of AR target genes in LREX′ cell line in steroid depleted media (RT-qPCR); type: cell-based, human
# Description: A. Normalized expression array signal (Illumina HT-12) of a suite of 74 AR target genes in control (n=10), 4 day (n=8), and LREX′ (n=8, right) xenograft tumors. Genes are ranked by degree of restoration of expression in resistant tissue ((Res-4 day)/(Control-4 day)). All resistant tissues were continued on anti-androgen treatment through time of harvest. B. Fractional restoration values of each of the 74 AR targets in LREX′ xenografts (n=8) or resistant tissues from the validation cohort (n=12). C. GR mRNA in resistant tissues used in B. D. Expression of AR target genes in the LREX′ cell line in steroid depleted media after 8 hours of treatment with the indicated agonists, in vitro. […] A. LnCaP/AR cells engineered to express GFP or GR were treated with indicated drugs. […] D. Control or AR siRNA knock-down in LREX′ followed by treatment with indicated drugs. […] Cells were treated in charcoal stripped media. Expression determined by RT-qPCR+/−s.e.m.
# LREX′ cells were derived from a single enzalutamide resistant tumor that was harvested, disaggregated with collagenase treatment, and then maintained in RPMI supplemented with 20% FBS and 1 μM enzalutamide. Cells were initially grown on collagen-coated flasks until confluent and then were maintained on standard tissue culture dishes. CS1 were similarly derived from vehicle treated tumors and maintained in standard LNCaP/AR media. LNCaP/AR and LREX′ cells were cultured in phenol-red free RPMI with 10% charcoal-stripped FBS prior to drug treatments.
# GR mRNA in LREX′ cells = GR mRNA in LREX′ cells cultured in vitro; type: cell-based, human
# [3] = in vivo; cited from earlier work
# [4] = list continues over r20-r28; cited from earlier work
# GR = GR (Homo sapiens, UniProt P04150); conditions: patients with Cushing syndrome; cited from earlier work
# GR, sequence (P04150 whole entry): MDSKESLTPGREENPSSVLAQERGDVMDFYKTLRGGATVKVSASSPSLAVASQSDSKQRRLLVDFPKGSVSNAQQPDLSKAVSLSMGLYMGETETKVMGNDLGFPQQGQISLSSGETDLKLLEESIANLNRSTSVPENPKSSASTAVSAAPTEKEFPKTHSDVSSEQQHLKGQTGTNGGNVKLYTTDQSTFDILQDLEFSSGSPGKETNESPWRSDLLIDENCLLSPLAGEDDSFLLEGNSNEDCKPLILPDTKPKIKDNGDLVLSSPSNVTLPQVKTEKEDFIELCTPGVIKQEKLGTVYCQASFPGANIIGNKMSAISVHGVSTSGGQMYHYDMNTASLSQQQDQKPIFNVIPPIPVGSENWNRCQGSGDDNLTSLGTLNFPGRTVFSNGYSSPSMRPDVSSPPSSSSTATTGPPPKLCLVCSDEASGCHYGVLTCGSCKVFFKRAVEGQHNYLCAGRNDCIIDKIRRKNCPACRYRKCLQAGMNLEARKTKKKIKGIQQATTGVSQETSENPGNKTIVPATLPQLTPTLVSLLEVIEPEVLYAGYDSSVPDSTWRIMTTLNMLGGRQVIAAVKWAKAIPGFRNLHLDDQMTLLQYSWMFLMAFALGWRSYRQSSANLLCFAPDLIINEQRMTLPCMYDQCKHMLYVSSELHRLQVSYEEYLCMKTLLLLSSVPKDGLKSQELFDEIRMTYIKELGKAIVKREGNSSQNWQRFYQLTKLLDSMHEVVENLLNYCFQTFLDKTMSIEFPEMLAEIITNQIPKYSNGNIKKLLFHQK
# PSA = assay: Maximal PSA decline in patients receiving enzalutamide; type: in vivo; conditions: enzalutamide 160 mg daily
# Method: Patients were treated with enzalutamide 160 mg daily. Bone marrow biopsy and aspirate (˜5 mL) were performed before treatment and at week 8. The bone marrow specimens were obtained by transiliac biopsy, and samples were processed according to standard MD Anderson Cancer Center decalcification and fixation procedures. After pathologic evaluation, samples were stored in the MD Anderson Cancer Center Prostate Cancer Tissue Bank. Imaging studies were performed at the time of suspected prostate cancer progression or at the treating physician's discretion, but generally not prior to 12 weeks post-treatment initiation. […] Retrospective analysis for GR was performed by IHC on […] formalin-fixed, paraffin-embedded bone marrow biopsy sections with anti-GR at a dilution of 1:200 (BD Transduction Laboratories #611227). A Dako autostainer and standard 3,3-diaminobenzidine were used. GR expression was assessed in a blinded fashion by two pathologists scoring at least 100 tumor cells per specimen. […]
# To determine whether GR expression is a feature of clinical antiandrogen resistance, GR expression was evaluated in bone metastases from patients receiving enzalutamide. […] Using a GR IHC assay optimized for use in bone marrow samples, the percentage of GR-positive tumor cells was quantified and the data was dichotomized based on clinical response. […]
# [5] = system: LREX′ cells transcriptome; assay: Expression profiling of LREX′ cells after DHT or Dex, AR and GR signatures; type: cell-based, human; conditions: enzalutamide 10 micromolar
# VCaP cells = assay: VCaP cell viability by CellTiter-Glo; type: cell-based; conditions: Enz 10 micromolar, standard culture conditions
# Method: Enz=10 micromolar, Dex=100 nM, CMP 15=1 micromolar. A. Western blot analysis of prostate cancer cell lines. B, C and D. Cell viability assessed by CellTiter-Glo (Promega) assay and normalized to day 1 value after indicated treatments+/−s.e.m. E. Confirmation of GR knock-down by western blot after infection with GR targeting shRNA. F. Apoptosis as assessed by cPARP western blot after 3 days of indicated treatment. G. A suite of AR targets relevant to VCaP was defined (see methods) and normalized expression of each gene after 24 hours of indicated drug treatments is depicted by heat map and ranked by degree of induction with Dex. H. Expression of the top two genes from B. (KLK2 and FKBP5) after 24 hours of indicated treatments+/−s.e.m.
# VCaP: Cells were plated in triplicate and then assayed in triplicate at the time points indicated using CellTiter-Glo (Promega). Viability is plotted normalized to day 1. For knockdown studies, cells were infected and then plated 3 days later for the experiment without prior drug selection. LnCaP/AR and sub-lines: Equivalent numbers of cells were plated and then harvested and counted in triplicate at indicated time points using the Beckman Coulter Vi-Cell XR. Cells were passaged at each time point and identical numbers of cells re-plated. Fold increase in cell numbers were determined for each time interval. […]
# LnCaP/AR and sub-lines = assay: In vitro growth by cell counting (Vi-cell); type: cell-based; conditions: 1 micromolar enzalutamide
# Method: . […] C. […] AUC=area under curve. […] .
# VCaP: Cells were plated in triplicate and then assayed in triplicate at the time points indicated using CellTiter-Glo (Promega). Viability is plotted normalized to day 1. For knockdown studies, cells were infected and then plated 3 days later for the experiment without prior drug selection. LnCaP/AR and sub-lines: Equivalent numbers of cells were plated and then harvested and counted in triplicate at indicated time points using the Beckman Coulter Vi-Cell XR. Cells were passaged at each time point and identical numbers of cells re-plated. Fold increase in cell numbers were determined for each time interval.
# [6] = mouse, in vivo; cited from earlier work
# [7] = system: GR protein in CS1 or LnCaP/AR cells; assay: Intracellular GR flow cytometry of CS1 and LnCaP/AR cells under enzalutamide; conditions: enzalutamide 1 micromolar, 4 week experiment
# Method: (§1) Cells were re-suspended in Fixation/Permeabilization working solution (eBioscience; San Diego, Calif., USA) at a concentration of 1-2×10^6 cells/ml for 30 minutes at room temperature. The cells were subsequently stained with primary antibodies, Rabbit (DA1E) mAb IgG XP® Isotype Control, androgen receptor (D6F11) XP® Rabbit mAb, or glucocorticoid receptor (D6H2L) XP® Rabbit mAb (Cell Signaling Technology; Danvers, Mass., USA) for 20 minutes at room temperature. The cells were washed twice with Flow Cytometry Staining Buffer (eBioscience; San Diego, Calif., USA), and then stained with secondary antibody, Allophycocyanin-AffiniPure F(ab′)2 Fragment Donkey Anti-Rabbit IgG (Jackson ImmunoResearch Laboratories, Inc.; Westgrove, Pa., USA) for 20 minutes at room temperature. Following two more washes, the cells were re-suspended in Flow Cytometry Staining Buffer and analyzed by flow cytometry on a LSRII (BD Biosciences; San Jose, Calif., USA) using FlowJo software (Tree Star, Ashland, Oreg., USA). For GR staining, cells were maintained in their standard media and treated with dexamethasone for 20 minutes prior to harvest to fully expose antigen. For AR staining, cells were cultured in charcoal stripped media without added ligands for 3 days prior to harvest.
# [8] = system: GR protein in LREX′ cells; assay: Intracellular GR flow cytometry of LREX′ cells on enzalutamide withdrawal and re-exposure; conditions: LREX′off cells re-exposed to enzalutamide 1 micromolar
# Method: as §1
# [9] = system: LNCaP/AR xenograft tumors; assay: LNCaP/AR xenograft pilot cohort, continual antiandrogen treatment until acquired resistance
# [10] = steroid depleted media, 8 hours
# [11] = harvest after progression on continued treatment
structure (smiles),measurement,setting,value
CC#C[C@]1(O)CC[C@H]2[C@@H]3CCC4=CC(=O)CCC4=C3[C@@H](c3ccc4c(c3)OCO4)C[C@@]21C [ORG 34517],AR target gene expression,[1],activate AR target gene expression
"C[C@]12CCC(=O)C[C@@H]1CC[C@@H]1[C@@H]2CC[C@]2(C)[C@@H](O)CC[C@@H]12 [DHT, dihydrotestosterone]",induction of KLK3 (PSA),[2]; [10],comparably induced
same,regulation of 8 genes (7 AR targets and PSA),[2]; [10],regulated
same,GR mRNA levels,"GR mRNA in LREX′ cells; LREX′, charcoal stripped media, 8 hours DHT exposure",reduced GR mRNA levels
CC(C)C(=O)Nc1ccc([N+](=O)[O-])c(C(F)(F)F)c1 [flutamide],Distribution: Protein-binding,[3],Distribution: Protein-binding: 90%
same,Excretion,[3],"Urine, faeces (small amounts)"
same,Adverse Drug Reactions,[4],"Hot flushes, loss of libido, impotence,"
"CC#C[C@]1(O)CC[C@H]2[C@@H]3CCC4=CC(=O)CCC4=C3[C@@H](c3ccc(N(C)C)cc3)C[C@@]21C [RU486, RU-486]",risk-benefit profile of GR inhibition in humans,GR,acceptable risk-benefit profile
CNC(=O)c1ccc(N2C(=S)N(c3ccc(C#N)c(C(F)(F)F)c3)C(=O)C2(C)C)cc1F [enzalutamide],patients with maximal PSA decline greater than 50%,PSA; good responders (benefit > 6 months),11 of 13
same,patients with maximal PSA decline greater than 50%,PSA; poor responders (discontinued < 6 months),1 of 14
same,effect on DHT regulation of 8 AR target genes,[2]; enzalutamide 10 micromolar,blocked
same,effect on Dex activity,[2]; enzalutamide 10 micromolar,did not notably affect
same,effect on Dex-induced gene expression (heatmap),[5],not impacted
same,growth of VCaP cells,VCaP cells,inhibited growth
same,GR mRNA levels after enzalutamide withdrawal in vitro,"GR mRNA in LREX′ cells; LREX′ cells, FBS media without enzalutamide, 23 days",dropped as early as 1 day after discontinuation
same,effect of co-treatment on DHT reduction of GR mRNA,"GR mRNA in LREX′ cells; LREX′, 10 micromolar enzalutamide, 8 hours",reversed
same,antiproliferative effect in vitro,LnCaP/AR and sub-lines,weak antiproliferative effect
same,half-life in mice,[6],prolonged half-life
same,median GR expression intensity,[7],no change in median expression intensity
same,doubling time of GR expression induction,[8],6.8 days
CNC(=O)c1ccc(N2C(=S)N(c3ccc(C#N)c(C(F)(F)F)c3)C(=O)C23CCC3)cc1F [RD162],% Regression: D 28 Mean,"[9]; LNCaP/AR xenografts in castrate mice, 10 mg/kg oral, day 28",80%
same,Day of Harvest: Mean,[9]; [11],D173
same,Mean Tumor Volume (mm^3) at harvest,[9]; [11],554 mm^3
